Measured values published in patent publication US10507212B2, “Method for use of homopiperazinium compounds in the treatment of cancer” (UNIVERSITÉ LAVAL, priority 2014, dated 2019).
Like-named read-outs stand apart in the source and are kept apart here.

Columns and labels:
[1] = test system: A549 adenocarcinoma cell line; assay: Cell proliferation assay, A549 (MTT); settings: for IC50: Tosylate
Procedure: In vitro experiments were conducted on four cancer cell lines: the A549 adenocarcinoma cell line, the H520 squamous cell carcinoma the H82 small cell lung carcinoma and Calu 3 lung adenocarcinoma. The A549 tumor cells, were plated at a density of 1.5×10^4 cells per mL and let to adhere on 96-well microplates in F12K cell culture medium enriched with 10% fetal calf serum (FCS). The H520, H82 and Calu 3 tumor cells were plated at a density of 5×10^4 cells per mL in RPMI+10% FCS. After 24 h in culture, the medium was changed and cells were exposed to ASM-024 at concentrations ranging from 10^−7M to 10^−3M (FIGS. 1A-1C). After 3 and 6 days in culture, cell growth was quantified using the MTT colorimetric assay (M2128, Sigma) at 575-690 nm or the Cell Titer fluorescence assay (G8080, Promega) at 560/590 nm.
In an another set of experiments, a series of 16 other homopiperazinium compounds, in addition to ASM-024, were tested for their anti-proliferative effect on the four tumor cell lines described above after up to 6 days in culture at concentrations of 10^-7M to 10^-3M. (FIGS. 4A-4E) Cell growth was quantified using the MTT colorimetric assay for the A-549, H520 and Calu 3 cell lines and the CellTiter Fluorescence assay.for the H82 tumor cell line These are established method of determining viable cell number in proliferation studies.

[2] = test system: SK-MEL-28; assay: Anti-proliferative MTT assay, SK-MEL-28; type: cell-based; settings: Homo sapiens
Procedure: (§1) The effect of ASM-024 on the growth of MCF7, SK-BR-3, MDA-MB-231, BT-474 (mammary adenocarcinomas), SK-OV/3 (ovary adenocarcinoma), PC3 (prostate adenocarcinoma) SK-MEL-28(skin melanoma) and C6 (tumor cell glioma) was evaluated. Cells were cultured in RPMI medium and incubated with different concentrations of ASM-024. Cell proliferation was measured on days 3 and 6 by the MTT colorimetric assay. Absorbance at 576-690 nm was analyzed with a microplate reader and expressed as optical density (OD) and as a percentage of the value of corresponding untreated cells. The IC50 was determined as the drug concentration required to inhibit cell growth by 50% from a plot of percent cell viability from control untreated cells versus treated cells.

[3] = test system: SK-OV/3; assay: Anti-proliferative MTT assay, SK-OV/3; type: cell-based; settings: Homo sapiens
Procedure: as §1

[4] = test system: MCF7; assay: Anti-proliferative MTT assay, MCF7; type: cell-based; settings: Homo sapiens
Procedure: as §1

Question: CC[N+]1(CC)CCCN(c2ccccc2)CC1.Cc1ccc(S(=O)(=O)[O-])cc1 [ASM-024, 1,1-Diethyl-4-phenyl-homopiperazinium Tosylate] was tested. Which “cell proliferation / cell growth inhibition (in words)” value ([1]; A549, day 3 and day 6, text on figures) did it give?
Answer: dose-dependent decrease in cell proliferation

Question: And the IC50 ([1]; read-out: IC50 Day 3, A549, day 3 in culture)?
Answer: 56 ± 20 µM

Question: And the IC50 ([1]; read-out: IC50 Day 6, A549, day 6 in culture)?
Answer: 59 ± 21 µM

Question: And the IC50 ([2]; 72 h, SK-MEL-28, day 3, read-out: IC50 Day 3)?
Answer: > 800 µM

Question: And the IC50 ([2]; 144 h, SK-MEL-28, day 6, read-out: IC50 Day 6)?
Answer: 259 ± 63 µM

Question: And the IC50 ([3]; 72 h, SK-OV/3, day 3, read-out: IC50 Day 3)?
Answer: > 600 µM

Question: What about the IC50 ([3]; 144 h, SK-OV/3, day 6, read-out: IC50 Day 6) of the same compound?
Answer: 618 ± 125 µM

Question: And the IC50 ([4]; 72 h, MCF7, day 3, read-out: IC50 Day 3)?
Answer: 470 ± 364 µM

Question: And the IC50 ([4]; 144 h, MCF7, day 6, read-out: IC50 Day 6)?
Answer: 209 ± 42 µM
